The values below come from US7262170B2, “Pharmaceutical composition for reducing vaginal acidity and treatment of vaginitis, and the use thereof” (priority 1998, dated 2007).

In one experiment the test system is Candida albicans. The experiment can be described thus: Growth of Candida albicans in broths with or without Fluconazole, Gram-stained smears of cultured broths. Format: cell-based. Conditions: 48 hours incubation, Fluconazole 0.005% in experiment tubes. The procedure:
Broths: Four sterilized broths were prepared separately according to following formula: • A. Sucrose 0.25%, yeast extract powder 0.15%, glutamic acid 0.4%, aspartic acid 0.4%, isoleucine 0.4%, proline 0.4%, phenylalanine 0.4%, Fluconazole, 0.005%, distilled water, pH adjusted to 6.5 • B. Sucrose 0.25%, yeast extract powder 0.15%, glutamic acid 0.08%, aspartic acid 0.08%, isoleucine 0.08%, proline 0.08%, phenylalanine 0.08%, Fluconazole, 0.005%, distilled water, pH adjusted to 6.5 • C. Control-A broth: Sucrose 0.25%, yeast extract powder 0.15%, glutamic acid 0.4%, aspartic acid 0.4%, isoleucine 0.4%, proline 0.4%, phenylalanine 0.4%, distilled water, pH adjusted to 6.5 • D. Control-B broth: Sucrose 0.25%, yeast extract powder 0.15%, glutamic acid 0.08%, aspartic acid 0.08%, isoleucine 0.08%, proline 0.08%, phenylalanine 0.08%, distilled water, pH adjusted to 6.5 Lactobacillus suspensions: Two lactobacillus suspensions were prepared separately from each of the clinical isolated L. acidophilus and L. crispatus strains. Candida suspension: One Candida suspension was prepared from a clinically isolated Candida albicans strain. Grouping: two groups of tubes were divided and each group had four tubes, two experimental tubes and two control tubes. Group A contained 3 ml of A-broth and Group B contained 3 ml of B-broth. […]

Another experiment has as its system fungal vaginitis. Conditions: anti-fungal drug alone; cited from earlier work.

With `OC(Cn1cncn1)(Cn1cncn1)c1ccc(F)cc1F` [Fluconazole], in the experiment on Candida albicans, the “growth of Candida albicans / yeast-like organisms in cultured broths” value is “inhibited”.

Mikostatin: the curative rate with fungal vaginitis is 75-80%.
